Test results reported in PubChem BioAssay AID2060489 (Molecular Pharmacology Branch, DTP, NCI, 2025).

Test system: 922993-354-T-J3-PDC complex spheroids, viability
Experiment: Anticancer human tumor 922993-354-T-J3-PDC patient-derived endometrial carcinoma cell line growth inhibition [GQUAD]
Settings: for IC50: curve of first compound; for viability, T/C: stronger effect = lower value
Outline: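 Viability of tumor cells grown as complex spheroids with endothelial and stromal cells, exposed to drug combinations. Top concentration at or near clinical Cmax (else 10 microM), diluted in half-log increments.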

[1] = second compound 0.0316 µM, first compound 0.0316 µM
[2] = second compound 0.0316 µM, first compound 0.1 µM
[3] = second compound 0.0316 µM, first compound 0.316 µM
[4] = second compound 0.0316 µM, first compound 1 µM
[5] = second compound 0.0316 µM, first compound 3.16 µM
[6] = second compound 0.0316 µM, first compound 10 µM
[7] = second compound 0.1 µM, first compound 0.0316 µM
[8] = second compound 0.1 µM, first compound 0.1 µM
[9] = second compound 0.1 µM, first compound 0.316 µM
[10] = second compound 0.1 µM, first compound 1 µM
[11] = second compound 0.1 µM, first compound 3.16 µM
[12] = second compound 0.1 µM, first compound 10 µM
[13] = second compound 0.316 µM, first compound 0.0316 µM
[14] = second compound 0.316 µM, first compound 0.1 µM
[15] = second compound 0.316 µM, first compound 0.316 µM
[16] = second compound 0.316 µM, first compound 1 µM
[17] = second compound 0.316 µM, first compound 3.16 µM
[18] = second compound 0.316 µM, first compound 10 µM
[19] = second compound 1 µM, first compound 0.0316 µM
[20] = second compound 1 µM, first compound 0.1 µM
[21] = second compound 1 µM, first compound 0.316 µM
[22] = second compound 1 µM, first compound 1 µM
[23] = second compound 1 µM, first compound 3.16 µM
[24] = second compound 1 µM, first compound 10 µM
[25] = second compound 3.16 µM, first compound 0.0316 µM
[26] = second compound 3.16 µM, first compound 0.1 µM
[27] = second compound 3.16 µM, first compound 0.316 µM
[28] = second compound 3.16 µM, first compound 1 µM
[29] = second compound 3.16 µM, first compound 3.16 µM
[30] = second compound 3.16 µM, first compound 10 µM
[31] = second compound 10 µM, first compound 0.0316 µM
[32] = second compound 10 µM, first compound 0.1 µM
[33] = second compound 10 µM, first compound 0.316 µM
[34] = second compound 10 µM, first compound 1 µM
[35] = second compound 10 µM, first compound 3.16 µM
[36] = second compound 10 µM, first compound 10 µM
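Also: spheroids exposed to compounds for seven days.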
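For viability, T/C in this document: 100% = DMSO vehicle control viability.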

Question: With `CC1COCCN1c1cc(C2(S(C)(=N)=O)CC2)nc(-c2ccnc3[nH]ccc23)n1` (stereo unspecified) + CN(C)c1ccc(Nc2c3ccc(NC(=O)CCN4CCCC4)cc3nc3cc(NC(=O)CCN4CCCC4)ccc23)cc1 as the molecule, how does the IC50 (second compound 0.0316 µM) read?
Answer: The IC50 was over 10 µM.

Question: And the IC50 (second compound 0.1 µM)?
Answer: The IC50 was over 10 µM.

Question: What about the IC50 (second compound 0.316 µM) of the same molecule?
Answer: The IC50 was over 10 µM.

Question: And the IC50 (second compound 1 µM)?
Answer: The IC50 was over 10 µM.

Question: What about the IC50 (second compound 3.16 µM) of the same molecule?
Answer: The IC50 was over 10 µM.

Question: What about the IC50 (second compound 10 µM) of the same molecule?
Answer: The IC50 was over 10 µM.

Question: What about the viability, T/C [1] of the same molecule?
Answer: The viability, T/C was 110%.

Question: And the viability, T/C [2]?
Answer: The viability, T/C was 124%.

Question: And the viability, T/C [3]?
Answer: The viability, T/C was 127%.

Question: What about the viability, T/C [4] of the same molecule?
Answer: The viability, T/C was 87.1%.

Question: What about the viability, T/C [5] of the same molecule?
Answer: Its viability, T/C is 117%.

Question: And the viability, T/C [6]?
Answer: The viability, T/C was 70.4%.

Question: What about the viability, T/C [7] of the same molecule?
Answer: The viability, T/C was 119%.

Question: What about the viability, T/C [8] of the same molecule?
Answer: Its viability, T/C is 121%.

Question: What about the viability, T/C [9] of the same molecule?
Answer: Its viability, T/C is 96.4%.

Question: What about the viability, T/C [10] of the same molecule?
Answer: Its viability, T/C is 85.2%.

Question: What about the viability, T/C [11] of the same molecule?
Answer: Its viability, T/C is 92.1%.

Question: What about the viability, T/C [12] of the same molecule?
Answer: Its viability, T/C is 68.4%.

Question: And the viability, T/C [13]?
Answer: Its viability, T/C is 102%.

Question: And the viability, T/C [14]?
Answer: The viability, T/C was 102%.

Question: And the viability, T/C [15]?
Answer: The viability, T/C was 89%.

Question: And the viability, T/C [16]?
Answer: Its viability, T/C is 111%.

Question: And the viability, T/C [17]?
Answer: Its viability, T/C is 89.5%.

Question: And the viability, T/C [18]?
Answer: Its viability, T/C is 64.6%.

Question: And the viability, T/C [19]?
Answer: The viability, T/C was 114%.

Question: What about the viability, T/C [20] of the same molecule?
Answer: The viability, T/C was 116%.

Question: What about the viability, T/C [21] of the same molecule?
Answer: The viability, T/C was 99.9%.

Question: What about the viability, T/C [22] of the same molecule?
Answer: Its viability, T/C is 96.5%.

Question: What about the viability, T/C [23] of the same molecule?
Answer: The viability, T/C was 121%.

Question: What about the viability, T/C [24] of the same molecule?
Answer: The viability, T/C was 76.2%.

Question: And the viability, T/C [25]?
Answer: The viability, T/C was 102%.

Question: And the viability, T/C [26]?
Answer: The viability, T/C was 128%.

Question: And the viability, T/C [27]?
Answer: Its viability, T/C is 105%.

Question: And the viability, T/C [28]?
Answer: Its viability, T/C is 115%.

Question: And the viability, T/C [29]?
Answer: Its viability, T/C is 108%.

Question: And the viability, T/C [30]?
Answer: Its viability, T/C is 79.3%.

Question: What about the viability, T/C [31] of the same molecule?
Answer: The viability, T/C was 121%.

Question: What about the viability, T/C [32] of the same molecule?
Answer: Its viability, T/C is 140%.

Question: What about the viability, T/C [33] of the same molecule?
Answer: The viability, T/C was 130%.

Question: And the viability, T/C [34]?
Answer: Its viability, T/C is 114%.

Question: And the viability, T/C [35]?
Answer: The viability, T/C was 109%.

Question: And the viability, T/C [36]?
Answer: Its viability, T/C is 93.4%.

Question: What does the source list for `O=C(c1cc(Cc2n[nH]c(=O)c3ccccc23)ccc1F)N1CCN(C(=O)C2CC2)CC1` + CN(C)c1ccc(Nc2c3ccc(NC(=O)CCN4CCCC4)cc3nc3cc(NC(=O)CCN4CCCC4)ccc23)cc1?
Answer: IC50 (second compound 0.0316 µM): > 10 µM; IC50 (second compound 0.1 µM): > 10 µM; IC50 (second compound 0.316 µM): > 10 µM; IC50 (second compound 1 µM): > 10 µM; IC50 (second compound 3.16 µM): > 10 µM; IC50 (second compound 10 µM): > 10 µM; viability, T/C [1]: 103%; viability, T/C [2]: 105%; viability, T/C [3]: 94.2%; viability, T/C [4]: 86.5%; viability, T/C [5]: 89.8%; viability, T/C [6]: 106%; viability, T/C [7]: 115%; viability, T/C [8]: 81.9%; viability, T/C [9]: 91.9%; viability, T/C [10]: 86%; viability, T/C [11]: 94.9%; viability, T/C [12]: 106%; viability, T/C [13]: 89.5%; viability, T/C [14]: 84.3%; viability, T/C [15]: 115%; viability, T/C [16]: 87.3%; viability, T/C [17]: 91.2%; viability, T/C [18]: 78.5%; viability, T/C [19]: 83.7%; viability, T/C [20]: 86.5%; viability, T/C [21]: 87.8%; viability, T/C [22]: 74.7%; viability, T/C [23]: 97.5%; viability, T/C [24]: 107%; viability, T/C [25]: 84.2%; viability, T/C [26]: 105%; viability, T/C [27]: 110%; viability, T/C [28]: 75.5%; viability, T/C [29]: 120%; viability, T/C [30]: 93.7%; viability, T/C [31]: 110%; viability, T/C [32]: 128%; viability, T/C [33]: 109%; viability, T/C [34]: 99.4%; viability, T/C [35]: 133%; viability, T/C [36]: 132%

Question: Which results are given for `CCCS(=O)(=O)Nc1ccc(F)c(C(=O)c2c[nH]c3ncc(-c4ccc(Cl)cc4)cc23)c1F` + CN(C)c1ccc(Nc2c3ccc(NC(=O)CCN4CCCC4)cc3nc3cc(NC(=O)CCN4CCCC4)ccc23)cc1?
Answer: IC50 (second compound 0.0316 µM): > 10 µM; IC50 (second compound 0.1 µM): 8.45 µM; IC50 (second compound 0.316 µM): > 10 µM; IC50 (second compound 1 µM): > 10 µM; IC50 (second compound 3.16 µM): > 10 µM; IC50 (second compound 10 µM): > 10 µM; viability, T/C [1]: 91.6%; viability, T/C [2]: 94.2%; viability, T/C [3]: 103%; viability, T/C [4]: 66.5%; viability, T/C [5]: 72.2%; viability, T/C [6]: 60.6%; viability, T/C [7]: 78.2%; viability, T/C [8]: 83.9%; viability, T/C [9]: 95%; viability, T/C [10]: 80.3%; viability, T/C [11]: 68.1%; viability, T/C [12]: 46.9%; viability, T/C [13]: 105%; viability, T/C [14]: 78.5%; viability, T/C [15]: 89.6%; viability, T/C [16]: 94.7%; viability, T/C [17]: 83.1%; viability, T/C [18]: 68.1%; viability, T/C [19]: 82.5%; viability, T/C [20]: 86%; viability, T/C [21]: 83.3%; viability, T/C [22]: 80.2%; viability, T/C [23]: 79.3%; viability, T/C [24]: 60.8%; viability, T/C [25]: 97.5%; viability, T/C [26]: 101%; viability, T/C [27]: 108%; viability, T/C [28]: 87.8%; viability, T/C [29]: 84.9%; viability, T/C [30]: 53.8%; viability, T/C [31]: 103%; viability, T/C [32]: 111%; viability, T/C [33]: 131%; viability, T/C [34]: 122%; viability, T/C [35]: 115%; viability, T/C [36]: 78.4%
